# According to paper PMC7097893 (ACS Omega, 2020):
# *1 amine or outer side, *2 acyl side, *3 side chain or, on linkers, in order; H or OH if unused. Where a SMILES comes first, the peptide text is derived from it. Bridges are numbered along the chain shown (N, C = ends). Biphenyl(4,4'-CH2)2 = c1cc(-c2ccc(C[*:2])cc2)ccc1C[*:1]
# Experiments:
# galectin-3 (Gal-3) = galectin-3 (Gal-3) (Homo sapiens, UniProt P17931); type: binding
# [1] = target: galectin-3 (Gal-3) carbohydrate-binding domain; details: read-out: Kd to Gal-3; cited from earlier work
# [2] = type: physicochemical; details: pH 7
# circular dichroism = details: 10 mM Tris-HCl; pH 7; 25 °C; 50 uM
# galectin-3 (Gal-3), sequence (P17931 whole entry, the tested form may be a part): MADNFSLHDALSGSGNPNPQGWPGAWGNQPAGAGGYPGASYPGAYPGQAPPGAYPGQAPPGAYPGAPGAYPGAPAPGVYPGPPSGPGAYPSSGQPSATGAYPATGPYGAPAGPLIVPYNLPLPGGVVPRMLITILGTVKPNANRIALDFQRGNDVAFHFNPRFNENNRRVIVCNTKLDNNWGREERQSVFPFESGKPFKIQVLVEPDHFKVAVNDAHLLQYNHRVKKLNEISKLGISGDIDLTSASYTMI
compound,measurement,setting,value
H-GAQECPPKEPACKKAG-GGGK-(flu)-NH2 (sidechain bridge or staple) [p8-flu-BP],effect of excess lactose on fluorescent intensity change with Gal-3,galectin-3 (Gal-3),did not significantly affect
CC(=O)N[C@H]1C(O)O[C@H](CO)[C@@H](O[C@@H]2O[C@H](CO)[C@H](O)[C@H](O)[C@H]2O)[C@@H]1O (some centres unmarked) [N-acetyllactosamine],Kd,[1],200 µM
H-GAQECVYKEQSCKSAG-GGGK-(flu)-NH2 [p4-flu],Gal-3 binding of non-stapled peptide (fluorescent intensity change),galectin-3 (Gal-3),did not show significant fluorescent changes
H-GAPECKRKEYECKKAG-GGGK-(flu)-NH2 [p10-flu],Gal-3 binding of non-stapled peptide (fluorescent intensity change),galectin-3 (Gal-3),did not show any Gal-3 binding
H-GAAECAAKEAACKAAG-NH2 [control],helicity (α-helical content),[2],3.4%
"C[C@H](NC(=O)CN)C(=O)N[C@@H](CCC(N)=O)C(=O)N[C@@H](CCC(=O)O)C(=O)N[C@H]1CSCc2ccc(cc2)-c2ccc(cc2)CSC[C@@H](C(=O)N[C@@H](CCCCN)C(=O)N[C@@H](CCCCN)C(=O)N[C@@H](C)C(=O)NCC(N)=O)NC(=O)[C@H](C)NC(=O)[C@@H]2CCCN2C(=O)[C@H](CCC(=O)O)NC(=O)[C@H](CCCCN)NC(=O)[C@@H]2CCCN2C(=O)[C@@H]2CCCN2C1=O (H-GAQECPPKEPACKKAG-NH2; linker 5-12 via Biphenyl(4,4'-CH2)2)",helicity,circular dichroism,14%
"C[C@H](NC(=O)[C@H](CCCCN)NC(=O)[C@H](CCCCN)NC(=O)[C@@H]1CSCc2ccc(cc2)-c2ccc(cc2)CSC[C@H](NC(=O)[C@H](CCC(=O)O)NC(=O)[C@@H]2CCCN2C(=O)[C@H](C)NC(=O)CN)C(=O)N[C@@H](CCCCN)C(=O)N[C@@H](CCCNC(=N)N)C(=O)N[C@@H](CCCCN)C(=O)N[C@@H](CCC(=O)O)C(=O)N[C@@H](Cc2ccc(O)cc2)C(=O)N[C@@H](CCC(=O)O)C(=O)N1)C(=O)NCC(N)=O (H-GAPECKRKEYECKKAG-NH2; linker 5-12 via Biphenyl(4,4'-CH2)2)",helicity,circular dichroism,30%
"CC(C)[C@@H]1NC(=O)[C@@H](NC(=O)[C@H](CCC(=O)O)NC(=O)[C@H](CCC(N)=O)NC(=O)[C@H](C)NC(=O)CN)CSCc2ccc(cc2)-c2ccc(cc2)CSC[C@@H](C(=O)N[C@@H](CCCCN)C(=O)N[C@@H](CO)C(=O)N[C@@H](C)C(=O)NCC(N)=O)NC(=O)[C@H](CO)NC(=O)[C@H](CCC(N)=O)NC(=O)[C@H](CCC(=O)O)NC(=O)[C@H](CCCCN)NC(=O)[C@H](Cc2ccc(O)cc2)NC1=O (H-GAQECVYKEQSCKSAG-NH2; linker 5-12 via Biphenyl(4,4'-CH2)2)",helicity,circular dichroism,32%
